The results in this text go back to patent publication US8217029B2, “Oxazolidinone antibiotics” (Actelion Pharmaceuticals Ltd, priority 2007, dated 2012).

Molecules are shown by their SMILES. Values after ≈ are worked out from the molar mass of the structure shown.

In this assay the test system is S aureus A798. Description: Minimal inhibitory concentration (MIC), microdilution method in cation-adjusted Mueller-Hinton Broth following NCCLS guidelines. The format is cell-based. The conditions noted are these: pH of test medium 7.2-7.3. The procedure:
These assays have been performed following the description given in “Methods for dilution Antimicrobial Susceptibility Tests for Bacteria that Grow Aerobically, 4th ed.; Approved standard: NCCLS Document M7-A4; National Committee for Clinical Laboratory Standards Villanova, Pa., USA, 1997”. Minimal inhibitory concentrations (MICs; mg/l) were determined in cation-adjusted Mueller-Hinton Broth by a microdilution method following NCCLS guidelines (National Committee for Clinical Laboratory Standards. Methods for Dilution Antimicrobial Susceptibility). The pH of the test medium was 7.2-7.3. All Example compounds were tested against several Gram positive and Gram negative bacteria.
For orientation: Dilution methods test growth across graded concentrations, often in twofold steps.
A word on the MIC: it is the lowest concentration found to suppress growth. A lower MIC goes with a more susceptible organism. In the case of `COc1ccc2nccc(N3CCN(C[C@H]4CN(c5ccc6c(c5)NC(=O)CS6)C(=O)O4)CC3)c2n1` [Example 39, 6-{(S)-5-[4-(6-Methoxy-[1,5]naphthyridin-4-yl)-piperazin-1-ylmethyl]-2-oxo-oxazolidin-3-yl}-4H-benzo[1,4]thiazin-3-one], the MIC was at most 0.031 µg/mL.

With `COc1ccc2ncc(F)c(N3CC[C@H](NC[C@@H]4CN(c5ccc6c(c5)OCCO6)C(=O)O4)C3)c2n1` [Example 66, (R)-3-(2,3-Dihydro-benzo[1,4]dioxin-6-yl)-5-{[(5)-1-(3-fluoro-6-methoxy-[1,5]naphthyridin-4-yl)-pyrrolidin-3-ylamino]-methyl}-oxazolidin-2-one], the “MIC S aureus A798” value was “<=0.031 mg/l”.

`COc1ccc2ncc(F)c(N3CCN(C[C@@H]4CN(c5ccc6c(c5)NC(=O)CS6)C(=O)O4)CC3)c2n1` [Example 98, 6-{(R)-5-[4-(3-Fluoro-6-methoxy-[1,5]naphthyridin-4-yl)-piperazin-1-ylmethyl]-2-oxo-oxazolidin-3-yl}-4H-benzo[1,4]thiazin-3-one]: the minimum inhibitory concentration (MIC) is at most 0.031 µg/mL.

On to `COc1ccc2ncnc(N3CCC(O)(CC4CN(c5ccc6c(c5)OCCO6)C(=O)O4)CC3)c2c1` (racemic) [Example 4, (RS)-3-(2,3-Dihydro-benzo[1,4]dioxin-6-yl)-5-[4-hydroxy-1-(6-methoxy-quinazolin-4-yl)-piperidin-4-ylmethyl]-oxazolidin-2-one], for which the MIC is at most 0.031 µg/mL.

As for `COc1ccc2nccc(C3(O)CCN(C[C@@H]4CN(c5ccc6c(c5)NC(=O)CO6)C(=O)O4)CC3)c2c1` [Example 132, 6-{(R)-5-[4-Hydroxy-4-(6-methoxy-quinolin-4-yl)-piperidin-1-ylmethyl]-2-oxo-oxazolidin-3-yl}-4H-benzo[1,4]oxazin-3-one], the lowest concentration to inhibit growth (MIC) was 0.063 µg/mL (≈ 0.125 µM).

Molecule `COc1ccc(N2C[C@@H](CN[C@H]3CCN(c4c(F)cnc5ccc(OC)nc45)C3)OC2=O)cc1` [Example 169, (R)-5-{[(S)-1-(3-Fluoro-6-methoxy-[1,5]naphthyridin-4-yl)-pyrrolidin-3-ylamino]-methyl}-3-(4-methoxy-phenyl)-oxazolidin-2-one] registered an MIC of 0.5 µg/mL (≈ 1.07 µM).

`COc1ccc2nccc(N3CC(NC[C@@H]4CN(c5ccc6c(c5)NC(=O)CO6)C(=O)O4)C3)c2c1` [Example 156, 6-((R)-5-{[1-(6-Methoxy-quinolin-4-yl)-azetidin-3-ylamino]-methyl}-2-oxo-oxazolidin-3-yl)-4H-benzo[1,4]oxazin-3-one]: the MIC is at most 0.031 µg/mL.

Turning to `COc1ccc2nccc(N3CC[C@H](N(C)C[C@@H]4CN(c5ccc6c(c5)OCCO6)C(=O)O4)C3)c2n1` [Example 112, (R)-3-(2,3-Dihydro-benzo[1,4]dioxin-6-yl)-5-({[(S)-1-(6-methoxy-[1,5]naphthyridin-4-yl)-pyrrolidin-3-yl]-methyl-amino}-methyl)-oxazolidin-2-one], the MIC is at most 0.031 µg/mL.

As for `COc1ccc2nccc(N3CCN(C[C@H]4CN(c5cccc(F)c5)C(=O)O4)CC3)c2n1` [Example 40, (S)-3-(3-Fluoro-phenyl)-5-[4-(6-methoxy-[1,5]naphthyridin-4-yl)-piperazin-1-ylmethyl]-oxazolidin-2-one], the MIC came out at 0.125 µg/mL (≈ 0.286 µM).

Consider `COc1ccc2nccc(N3CCC(CNC(=O)[C@@H]4CN(c5ccc(C)c(F)c5)C(=O)O4)C3)c2n1` (mixture of isomers) [Example 82, (S)-3-(3-Fluoro-4-methyl-phenyl)-2-oxo-oxazolidine-5-carboxylic acid [(RS)-1-(6-methoxy-[1,5]naphthyridin-4-yl)-pyrrolidin-3-ylmethyl]-amide], for which the minimal inhibitory concentration (MIC) was at most 0.031 µg/mL.

On to `COc1ccc2nccc(N3CC(NC(=O)[C@@H]4CN(c5ccc6c(c5)OCCO6)C(=O)O4)C3)c2n1` [Example 116, (S)-3-(2,3-Dihydro-benzo[1,4]dioxin-6-yl)-2-oxo-oxazolidine-5-carboxylic acid[1-(6-methoxy-[1,5]naphthyridin-4-yl)-azetidin-3-yl]-amide], for which the “MIC S aureus A798” value is reported as “<=0.031 mg/l”.

As to `COc1ccc2nccc(N3CC(CNC[C@@H]4CN(c5ccc6c(c5)NC(=O)CS6)C(=O)O4)C3)c2c1` [Example 186, 6-[(R)-5-({[1-(6-Methoxy-quinolin-4-yl)-azetidin-3-ylmethyl]-amino}-methyl)-2-oxo-oxazolidin-3-yl]-4H-benzo[1,4]thiazin-3-one], the MIC is at most 0.031 µg/mL.

For the molecule `COc1ccc2nccc(N3CC[C@H](CNC[C@@H]4CN(c5ccc6c(c5)NC(=O)CO6)C(=O)O4)C3)c2n1` [Example 167, 6-[(R)-5-({[(R)-1-(6-Methoxy-[1,5]naphthyridin-4-yl)-pyrrolidin-3-ylmethyl]amino}-methyl)-2-oxo-oxazolidin-3-yl]-4H-benzo[1,4]oxazin-3-one], the minimum inhibitory concentration (MIC) was at most 0.031 µg/mL.

`CCc1ccc(N2C[C@@H](CN3CCN(c4ccnc5ccc(OC)nc45)CC3)OC2=O)cc1` [Example 26, (R)-3-(4-Ethyl-phenyl)-5-[4-(6-methoxy-[1,5]naphthyridin-4-yl)-piperazin-1-ylmethyl]-oxazolidin-2-one]: the MIC was at most 0.031 µg/mL.

The molecule `COc1ccc2ncc(F)c(N3CCCN(C[C@@H]4CN(c5ccc6c(c5)NC(=O)CS6)C(=O)O4)CC3)c2n1` [Example 104, 6-{(R)-5-[4-(3-Fluoro-6-methoxy-[1,5]naphthyridin-4-yl)-[1,4]diazepan-1-ylmethyl]-2-oxo-oxazolidin-3-yl}-4H-benzo[1,4]thiazin-3-one] yielded a minimal inhibitory concentration (MIC) of at most 0.031 µg/mL.

Regarding `COc1ccc2nccc(N3CC[C@@H](NC[C@@H]4CN(c5ccc6c(c5)NC(=O)CO6)C(=O)O4)C3)c2n1` [Example 72, 6-((R)-5-{[(R)-1-(6-Methoxy-[1,5]naphthyridin-4-yl)-pyrrolidin-3-ylamino]-methyl}-2-oxo-oxazolidin-3-yl)-4H-benzo[1,4]oxazin-3-one], the MIC is at most 0.031 µg/mL.

In the case of `COc1ccc2nccc(N3CCN(C(=O)C[C@@H]4CN(c5ccc6c(c5)NC(=O)CS6)C(=O)O4)CC3)c2n1` [Example 114, 6-((R)-5-{2-[4-(6-Methoxy-[1,5]naphthyridin-4-yl)-piperazin-1-yl]-2-oxo-ethyl}-2-oxo-oxazolidin-3-yl)-4H-benzo[1,4]thiazin-3-one], the minimum inhibitory concentration (MIC) was at most 0.031 µg/mL.

Molecule `COc1ccc2nccc(N3CCCC(NC[C@@H]4CN(c5ccc6c(c5)OCCO6)C(=O)O4)C3)c2n1` (mixture of isomers) [Example 102, (R)-3-(2,3-Dihydro-benzo[1,4]dioxin-6-yl)-5-{[(RS)-1-(6-methoxy-[1,5]naphthyridin-4-yl)-piperidin-3-ylamino]-methyl}-oxazolidin-2-one] had a minimal inhibitory concentration (MIC) of 4 µg/mL.

Molecule `COc1ccc2nccc(N3CC(NC[C@@H]4CN(c5ccc6c(c5)OCCO6)C(=O)O4)C3)c2n1` [Example 51, (R)-3-(2,3-Dihydro-benzo[1,4]dioxin-6-yl)-5-{[1-(6-methoxy-[1,5]naphthyridin-4-yl)-azetidin-3-ylamino]-methyl}-oxazolidin-2-one] yielded a minimum inhibitory concentration (MIC) of at most 0.031 µg/mL.

In turn, `COc1ccc2nccc(N3CC(N(C)C[C@@H]4CN(c5ccc6ncsc6c5)C(=O)O4)C3)c2n1` [Example 144, (R)-3-Benzothiazol-6-yl-5-({[1-(6-methoxy-[1,5]naphthyridin-4-yl)-azetidin-3-yl]-methyl-amino}-methyl)-oxazolidin-2-one] gave an MIC of 0.063 µg/mL (≈ 0.132 µM).

`COc1ccc2nccc(N3CC(NCCC4CN(c5ccc6c(c5)NC(=O)CS6)C(=O)O4)C3)c2n1` (racemic) [Example 58, (RS)-6-(5-{2-[1-(6-Methoxy-[1,5]naphthyridin-4-yl)-azetidin-3-ylamino]-ethyl}-2-oxo-oxazolidin-3-yl)-4H-benzo[1,4]thiazin-3-one] displayed a minimum inhibitory concentration (MIC) of at most 0.031 µg/mL.

In turn, `COc1ccc2nccc(N3C[C@@H](NC[C@@H]4CN(c5ccc6c(c5)NC(=O)CS6)C(=O)O4)[C@H](C(=O)O)C3)c2n1` (relative stereo) [Example 74, (3R*,4S*)-1-(6-Methoxy-[1,5]naphthyridin-4-yl)-4-{[(R)-2-oxo-3-(3-oxo-3,4-dihydro-2H-benzo[1,4]thiazin-6-yl)-oxazolidin-5-ylmethyl]-amino}-pyrrolidine-3-carboxylic acid] had an MIC of 0.5 µg/mL (≈ 0.908 µM).

For the molecule `COc1ccc2nccc(N3CCN(C[C@@H]4CN(c5ccc6c(c5)NC(=O)CS6)C(=O)O4)CC3)c2n1` [Example 22, 6-{(R)-5-[4-(6-Methoxy-[1,5]naphthyridin-4-yl)-piperazin-1-ylmethyl]-2-oxo-oxazolidin-3-yl}-4H-benzo[1,4]thiazin-3-one], the minimum inhibitory concentration (MIC) was at most 0.031 µg/mL.

Take `COc1ccc2nccc(N3C[C@H](NC[C@@H]4CN(c5ccc6c(c5)NC(=O)CO6)C(=O)O4)[C@@H](OC)C3)c2n1` [Example 181, 6-((R)-5-{[(3S,4S)-4-Methoxy-1-(6-methoxy-[1,5]naphthyridin-4-yl)-pyrrolidin-3-ylamino]-methyl}-2-oxo-oxazolidin-3-yl)-4H-benzo[1,4]oxazin-3-one]: it took 0.25 µg/mL (≈ 0.48 µM) to inhibit growth (MIC).

In the case of `COc1ccc2nccc(N3CC[C@H](NC(=O)[C@@H]4CN(c5ccc6c(c5)OCCO6)C(=O)O4)C3)c2n1` [Example 60, (S)-3-(2,3-Dihydro-benzo[1,4]dioxin-6-yl)-2-oxo-oxazolidine-5-carboxylic acid [(S)-1-(6-methoxy-[1,5]naphthyridin-4-yl)-pyrrolidin-3-yl]-amide], the MIC was at most 0.031 µg/mL.

`COc1ccc2ncc(F)c(N3CC[C@H](NC[C@@H]4CN(c5ccc6c(c5)NC(=O)CS6)C(=O)O4)C3)c2n1` [Example 65, 6-((R)-5-{[(S)-1-(3-Fluoro-6-methoxy-[1,5]naphthyridin-4-yl)-pyrrolidin-3-ylamino]-methyl}-2-oxo-oxazolidin-3-yl)-4H-benzo[1,4]thiazin-3-one] returned an MIC of at most 0.031 µg/mL.

Turning to `COc1ccc2nccc(N3CCC(O)(CC4CN(c5ccc6c(c5)OCCO6)C(=O)O4)CC3)c2n1` (racemic) [Example 5, (RS)-3-(2,3-Dihydro-benzo[1,4]dioxin-6-yl)-5-[4-hydroxy-1-(6-methoxy-[1,5]naphthyridin-4-yl)-piperidin-4-ylmethyl]-oxazolidin-2-one], the minimum inhibitory concentration (MIC) was at most 0.031 µg/mL.
